SMILES strings stand for the structures. Square brackets hold non-standard residues; d marks the D form. Peptide text beside a SMILES is read from it.

Broadly, the IC50 is the concentration that inhibits the measured activity by half.

For data set [1], the system named is Vero E6 and HEK293T cells. The settings on record: administered over 48 hours.
The test system of data set [2] is SARS-CoV-2. The settings on record: ratio of IC50 and TD50; SARS-CoV-2 vs Vero E6 cells.
The subject of data set [3] is human red blood cells (RBCs).
The test system of data set [4] is SARS-CoV-2.

Consider `CC[C@@H](C)[C@@H](NC(=O)[C@H]1CCCN1C(=O)[C@H]1CCCN1C(=O)[C@H](NC(=O)[C@@H](Cc1c[nH]c2ccccc12)NC(=O)[C@@H](CCCCN)NC(=O)[C@@H](CC(C)C)NC(=O)[C@H](NC(=O)[C@@H](CCCCN)NC(=O)CNC(=O)[C@H](NC(=O)[C@@H](CCCCN)NC(=O)[C@@H](CCCCN)NC(=O)[C@@H](CC(C)C)NC(=O)[C@@H](CCCNC(=N)N)NC(=O)[C@@H](CCCCN)NC(=O)[C@@H](CCCNC(=N)N)NC(=O)[C@H](NC(=O)[C@@H](CCCCN)NC(=O)[C@@H](CCCCN)NC(=O)[C@@H](CCCNC(=N)N)NC(=O)[C@@H](CC(C)C)NC(=O)[C@@H](CCCNC(=N)N)NC(=O)[C@@H](CCCNC(=N)N)NC(=O)[C@@H](Cc1ccccc1)NC(=O)[C@@H](CCCNC(=N)N)NC(=O)CNC(=O)[C@H](N)C(C)C)[C@H](C)O)[C@H](C)CC)C(C)C)[C@H](C)CC)C(=O)N[C@@H](C(=O)NCC(=O)N[C@H](CO)C(=O)N[C@@H](C(=O)N1CCC[C@@H]1C(=O)N[C@H](CC(C)C)C(=O)NCC(=O)N[C@H](CO)C(=O)NCC(=O)O)[C@H](C)CC)C(C)C` [D-Yongshi] (H-[dV]G[dR][dF][dR][dR][dL][dR][dK][dK][dT][dR][dK][dR][dL][dK][dK][dI]G[dK][dV][dL][dK][dW][dI][dP][dP][dI][dV]G[dS][dI][dP][dL]G[dS]G-OH), for which the cytotoxicity entry in data set [1] is on record as “significantly increased cytotoxicity”. Moreover, the “therapeutic index (TI)” value in the data set on SARS-CoV-2 [2] came to 1.64.

Turning to `CC[C@H](C)[C@H](NC(=O)[C@H](CCCCN)NC(=O)[C@H](CCC(=O)O)NC(=O)[C@H](CCCCN)NC(=O)[C@H](CO)NC(=O)[C@H](CCCCN)NC(=O)[C@H](CCCNC(=N)N)NC(=O)[C@H](Cc1ccccc1)NC(=O)[C@H](Cc1ccccc1)NC(=O)[C@H](CC(=O)O)NC(=O)CNC(=O)[C@H](CC(C)C)NC(=O)[C@@H](N)CC(C)C)C(=O)NCC(=O)N[C@@H](CCCCN)C(=O)N[C@@H](CCC(=O)O)C(=O)N[C@@H](Cc1ccccc1)C(=O)N[C@@H](CCCCN)C(=O)N[C@@H](CCCNC(=N)N)C(=O)N[C@H](C(=O)N[C@H](C(=O)N[C@@H](CCC(N)=O)C(=O)N[C@@H](CCCNC(=N)N)C(=O)N[C@H](C(=O)N[C@@H](CCCCN)C(=O)N[C@@H](CC(=O)O)C(=O)N[C@@H](Cc1ccccc1)C(=O)N[C@@H](CC(C)C)C(=O)N[C@@H](CCCNC(=N)N)C(=O)N[C@@H](CC(N)=O)C(=O)N[C@@H](CC(C)C)C(=O)N[C@H](C(=O)N1CCC[C@H]1C(=O)N[C@@H](CCCNC(=N)N)C(=O)N[C@H](C(=O)N[C@@H](CCC(=O)O)C(=O)N[C@@H](CO)C(=O)O)[C@@H](C)O)C(C)C)[C@@H](C)CC)C(C)C)[C@@H](C)CC` [LL-37, reference compound], the hemolytic activity entry in data set [3] is given as “significant hemolytic activity”.

In turn, `CC[C@H](C)[C@H](NC(=O)[C@H](CCCCN)NC(=O)[C@H](CCCCN)NC(=O)[C@H](CC(C)C)NC(=O)[C@H](CCCNC(=N)N)NC(=O)[C@H](CCCCN)NC(=O)[C@H](CCCNC(=N)N)NC(=O)[C@@H](NC(=O)[C@H](CCCCN)NC(=O)[C@H](CCCCN)NC(=O)[C@H](CCCNC(=N)N)NC(=O)[C@H](CC(C)C)NC(=O)[C@H](CCCNC(=N)N)NC(=O)[C@H](CCCNC(=N)N)NC(=O)[C@H](Cc1ccccc1)NC(=O)[C@H](CCCNC(=N)N)NC(=O)CNC(=O)[C@@H](N)C(C)C)[C@@H](C)O)C(=O)NCC(=O)N[C@@H](CCCCN)C(=O)N[C@H](C(=O)N[C@@H](CC(C)C)C(=O)N[C@@H](CCCCN)C(=O)N[C@@H](Cc1c[nH]c2ccccc12)C(=O)N[C@H](C(=O)N1CCC[C@H]1C(=O)N1CCC[C@H]1C(=O)N[C@H](C(=O)N[C@H](C(=O)NCC(=O)N[C@@H](CO)C(=O)N[C@H](C(=O)N1CCC[C@H]1C(=O)N[C@@H](CC(C)C)C(=O)NCC(=O)N[C@@H](CS)C(=O)NCC(=O)O)[C@@H](C)CC)C(C)C)[C@@H](C)CC)[C@@H](C)CC)C(C)C` [PMAP-36R] (H-VGRFRRLRKKTRKRLKKIGKVLKWIPPIVGSIPLGCG-OH; N-terminus and C-terminus assumed) gave a concentration for half-maximal inhibition (IC50) with SARS-CoV-2 [4] of 12 µM. Besides, the hemolytic activity result in data set [3] is given as “significant hemolytic activity”. The cytotoxicity result in data set [1] is given as “greater toxicity than LL-37”.

Turning to `CC[C@H](C)[C@H](NC(=O)[C@H](CCCCN)NC(=O)[C@H](CCCCN)NC(=O)[C@H](CC(C)C)NC(=O)[C@H](CCCNC(=N)N)NC(=O)[C@H](CCCCN)NC(=O)[C@H](CCCNC(=N)N)NC(=O)[C@@H](NC(=O)[C@H](CCCCN)NC(=O)[C@H](CCCCN)NC(=O)[C@H](CCCNC(=N)N)NC(=O)[C@H](CC(C)C)NC(=O)[C@H](CCCNC(=N)N)NC(=O)[C@H](CCCNC(=N)N)NC(=O)[C@H](Cc1ccccc1)NC(=O)[C@H](CCCNC(=N)N)NC(=O)CNC(=O)[C@@H](N)C(C)C)[C@@H](C)O)C(=O)NCC(=O)N[C@@H](CCCCN)C(=O)N[C@H](C(=O)N[C@@H](CC(C)C)C(=O)N[C@@H](CCCCN)C(=O)N[C@@H](Cc1c[nH]c2ccccc12)C(=O)N[C@H](C(=O)N1CCC[C@H]1C(=O)N1CCC[C@H]1C(=O)N[C@H](C(=O)N[C@H](C(=O)NCC(=O)N[C@@H](CO)C(=O)N[C@H](C(=O)N1CCC[C@H]1C(=O)N[C@@H](CC(C)C)C(=O)NCC(=O)N[C@@H](CO)C(=O)NCC(=O)O)[C@@H](C)CC)C(C)C)[C@@H](C)CC)[C@@H](C)CC)C(C)C` [Yongshi] (H-VGRFRRLRKKTRKRLKKIGKVLKWIPPIVGSIPLGSG-OH), the hemolytic activity result in data set [3] was “significantly reduced hemolytic activity”. The cytotoxicity entry in data set [1] was “decreased cytotoxicity compared to the parent PMAP-36R and LL-37”. In addition, the “therapeutic index (TI)” value in the data set on SARS-CoV-2 [2] worked out at 3.50.
